Source: the supplement of paper PMC10307832

Assays:
Assay in all cases: relative viability (nuclei count vs DMSO), 5 days (fraction); higher = more cells survive
CAL-12T = system: CAL-12T
Method in brief: (§1)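 Lung cancer cell lines in 1536-well plates got either a single drug or a fixed anchor-drug dose together with five library-drug doses (not always all listed) in √10 steps, by pin tool, on the day after seeding. Nuclei were counted after 5 days, and relative viability is the treated-to-vehicle ratio of nuclei counts. Values are medians of duplicate plates.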

NCI-H1734 = system: NCI-H1734
Method in brief: as §1

H3255 = system: H3255
Method in brief: as §1

NCI-H1563 = system: NCI-H1563
Method in brief: as §1

NCI-H1355 = system: NCI-H1355
Method in brief: as §1

NCI-H1975 = system: NCI-H1975
Method in brief: as §1

PC-3 [JPC-3] = system: PC-3 [JPC-3]
Method in brief: as §1

NCI-H322M = system: NCI-H322M
Method in brief: as §1

EKVX = system: EKVX
Method in brief: as §1

HCC-827 = system: HCC-827
Method in brief: as §1

HCC-15 = system: HCC-15
Method in brief: as §1

NCI-H1650 = system: NCI-H1650
Method in brief: as §1

NCI-H2228 = system: NCI-H2228
Method in brief: as §1

NCI-H661 = system: NCI-H661
Method in brief: as §1

NCI-H2342 = system: NCI-H2342
Method in brief: as §1

LCLC-97TM1 = system: LCLC-97TM1
Method in brief: as §1

LK-2 = system: LK-2
Method in brief: as §1

RERF-LC-KJ = system: RERF-LC-KJ
Method in brief: as §1

NCI-H1755 = system: NCI-H1755
Method in brief: as §1

NCI-H520 = system: NCI-H520
Method in brief: as §1

NCI-H2405 = system: NCI-H2405
Method in brief: as §1

PC-14 = system: PC-14
Method in brief: as §1

`O=c1cc(N2CCOCC2)oc2c(-c3cccc4c3sc3ccccc34)cccc12` + CCNC(=O)c1noc(-c2cc(C(C)C)c(O)cc2O)c1-c1ccc(CN2CCOCC2)cc1 [Luminespib] (partner 0.01 µM) was tested, and the relative viability (CAL-12T; first compound 0.01 µM) was 0.723, the relative viability (CAL-12T; first compound 0.03162 µM) was 0.621 and the relative viability (CAL-12T; first compound 0.1 µM) was 0.292. For the same compound, the relative viability (CAL-12T; first compound 0.3162 µM) was 0.31, the relative viability (CAL-12T; first compound 1 µM) was 0.527 and the relative viability (NCI-H1734; first compound 0.01 µM) was 0.199. It also gave a relative viability (NCI-H1734; first compound 0.03162 µM) of 0.168, a relative viability (NCI-H1734; first compound 0.1 µM) of 0.216 and a relative viability (NCI-H1734; first compound 0.3162 µM) of 0.187. For the same compound, the relative viability (NCI-H1734; first compound 1 µM) was 0.179, the relative viability (H3255; first compound 0.01 µM) was 0.885 and the relative viability (H3255; first compound 0.03162 µM) was 0.991. For the same compound, the relative viability (H3255; first compound 0.1 µM) was 0.948, the relative viability (H3255; first compound 0.3162 µM) was 0.909 and the relative viability (H3255; first compound 1 µM) was 0.945. The relative viability (NCI-H1563; first compound 0.01 µM) was 0.519, the relative viability (NCI-H1563; first compound 0.03162 µM) was 0.552 and the relative viability (NCI-H1563; first compound 0.1 µM) was 0.515. For the same compound, the relative viability (NCI-H1563; first compound 0.3162 µM) was 0.558, the relative viability (NCI-H1563; first compound 1 µM) was 0.544 and the relative viability (NCI-H1355; first compound 0.01 µM) was 0.815. For the same compound, the relative viability (NCI-H1355; first compound 0.03162 µM) was 0.708, the relative viability (NCI-H1355; first compound 0.1 µM) was 0.669 and the relative viability (NCI-H1355; first compound 0.3162 µM) was 0.728. For the same compound, the relative viability (NCI-H1355; first compound 1 µM) was 0.688, the relative viability (NCI-H1975; first compound 0.01 µM) was 0.198 and the relative viability (NCI-H1975; first compound 0.03162 µM) was 0.242. It also gave a relative viability (NCI-H1975; first compound 0.1 µM) of 0.202, a relative viability (NCI-H1975; first compound 0.3162 µM) of 0.271 and a relative viability (NCI-H1975; first compound 1 µM) of 0.227. It also gave a relative viability (PC-3 [JPC-3]; first compound 0.01 µM) of 0.711, a relative viability (PC-3 [JPC-3]; first compound 0.03162 µM) of 0.694 and a relative viability (PC-3 [JPC-3]; first compound 0.1 µM) of 0.689. It also gave a relative viability (PC-3 [JPC-3]; first compound 0.3162 µM) of 0.695, a relative viability (PC-3 [JPC-3]; first compound 1 µM) of 0.634 and a relative viability (NCI-H322M; first compound 0.01 µM) of 0.901. It also gave a relative viability (NCI-H322M; first compound 0.03162 µM) of 0.864, a relative viability (NCI-H322M; first compound 0.1 µM) of 0.889 and a relative viability (NCI-H322M; first compound 0.3162 µM) of 0.839. The relative viability (NCI-H322M; first compound 1 µM) was 0.756, the relative viability (EKVX; first compound 0.01 µM) was 0.9 and the relative viability (EKVX; first compound 0.03162 µM) was 0.872. For the same compound, the relative viability (EKVX; first compound 0.1 µM) was 0.878, the relative viability (EKVX; first compound 0.3162 µM) was 0.917 and the relative viability (EKVX; first compound 1 µM) was 0.891. The relative viability (HCC-827; first compound 0.01 µM) was 0.642, the relative viability (HCC-827; first compound 0.03162 µM) was 0.541 and the relative viability (HCC-827; first compound 0.1 µM) was 0.626. It also gave a relative viability (HCC-827; first compound 0.3162 µM) of 0.629, a relative viability (HCC-827; first compound 1 µM) of 0.71 and a relative viability (HCC-15; first compound 0.01 µM) of 0.301. The relative viability (HCC-15; first compound 0.03162 µM) was 0.294, the relative viability (HCC-15; first compound 0.1 µM) was 0.604 and the relative viability (HCC-15; first compound 0.3162 µM) was 0.339. It also gave a relative viability (HCC-15; first compound 1 µM) of 0.344, a relative viability (NCI-H1650; first compound 0.01 µM) of 0.211 and a relative viability (NCI-H1650; first compound 0.03162 µM) of 0.169. For the same compound, the relative viability (NCI-H1650; first compound 0.1 µM) was 0.196, the relative viability (NCI-H1650; first compound 0.3162 µM) was 0.203 and the relative viability (NCI-H1650; first compound 1 µM) was 0.191. The relative viability (NCI-H2228; first compound 0.01 µM) was 0.151, the relative viability (NCI-H2228; first compound 0.03162 µM) was 0.112 and the relative viability (NCI-H2228; first compound 0.1 µM) was 0.125. For the same compound, the relative viability (NCI-H2228; first compound 0.3162 µM) was 0.191, the relative viability (NCI-H2228; first compound 1 µM) was 0.133 and the relative viability (NCI-H661; first compound 0.01 µM) was 0.86. The relative viability (NCI-H661; first compound 0.03162 µM) was 0.952, the relative viability (NCI-H661; first compound 0.1 µM) was 0.948 and the relative viability (NCI-H661; first compound 0.3162 µM) was 0.943. The relative viability (NCI-H661; first compound 1 µM) was 0.888, the relative viability (NCI-H2342; first compound 0.01 µM) was 0.667 and the relative viability (NCI-H2342; first compound 0.03162 µM) was 0.58. It also gave a relative viability (NCI-H2342; first compound 0.1 µM) of 0.696, a relative viability (NCI-H2342; first compound 0.3162 µM) of 0.586 and a relative viability (NCI-H2342; first compound 1 µM) of 0.742. The relative viability (LCLC-97TM1; first compound 0.01 µM) was 0.621, the relative viability (LCLC-97TM1; first compound 0.03162 µM) was 0.796 and the relative viability (LCLC-97TM1; first compound 0.1 µM) was 0.827. It also gave a relative viability (LCLC-97TM1; first compound 0.3162 µM) of 0.759, a relative viability (LCLC-97TM1; first compound 1 µM) of 0.728 and a relative viability (LK-2; first compound 0.01 µM) of 0.181. It also gave a relative viability (LK-2; first compound 0.03162 µM) of 0.217, a relative viability (LK-2; first compound 0.1 µM) of 0.198 and a relative viability (LK-2; first compound 0.3162 µM) of 0.176. The relative viability (LK-2; first compound 1 µM) was 0.139, the relative viability (RERF-LC-KJ; first compound 0.01 µM) was 1.31 and the relative viability (RERF-LC-KJ; first compound 0.03162 µM) was 1.22. For the same compound, the relative viability (RERF-LC-KJ; first compound 0.1 µM) was 1.48, the relative viability (RERF-LC-KJ; first compound 0.3162 µM) was 1.07 and the relative viability (RERF-LC-KJ; first compound 1 µM) was 1.21. It also gave a relative viability (NCI-H1755; first compound 0.01 µM) of 0.501, a relative viability (NCI-H1755; first compound 0.03162 µM) of 0.265 and a relative viability (NCI-H1755; first compound 0.1 µM) of 0.496. The relative viability (NCI-H1755; first compound 0.3162 µM) was 0.419, the relative viability (NCI-H1755; first compound 1 µM) was 0.563 and the relative viability (NCI-H520; first compound 0.01 µM) was 0.213. For the same compound, the relative viability (NCI-H520; first compound 0.03162 µM) was 0.285, the relative viability (NCI-H520; first compound 0.1 µM) was 0.24 and the relative viability (NCI-H520; first compound 0.3162 µM) was 0.209. The relative viability (NCI-H520; first compound 1 µM) was 0.249, the relative viability (NCI-H2405; first compound 0.01 µM) was 0.712 and the relative viability (NCI-H2405; first compound 0.03162 µM) was 0.571. The relative viability (NCI-H2405; first compound 0.1 µM) was 0.722, the relative viability (NCI-H2405; first compound 0.3162 µM) was 0.717 and the relative viability (NCI-H2405; first compound 1 µM) was 0.681. The relative viability (PC-14; first compound 0.03162 µM) was 0.151, the relative viability (PC-14; first compound 0.3162 µM) was 0.197 and the relative viability (PC-14; first compound 1 µM) was 0.135.
